Test results as given in BindingDB's records for doi:10.1021/acsmedchemlett.8b00333 (University of Calabria, 2019).

Assay: Inverse agonist activity at GPR55 in human MDA-MB-231 cells assessed as reduction in cell viability incubated for 24 hrs by MTT assay

Structure (SMILES)	EC50
O=C1C(Cl)=C(N2CCCC2)C(=O)c2c(O)ccc(O)c21	> 10 µM
COc1ccc(OC)c2c1C(=O)C(Cl)=C(N1CCOCC1)C2=O	> 10 µM
COc1ccc(OC)c2c1C(=O)C(Cl)=C(N1CCCCC1)C2=O	> 10 µM
O=C1C(Cl)=C(N2CCCCC2)C(=O)c2c(O)ccc(O)c21	1.6 µM
CCCCN(CCCC)C1=C(Cl)C(=O)c2c(O)ccc(O)c2C1=O	> 20 µM
COc1ccc(OC)c2c1C(=O)C(Cl)=C(Cl)C2=O [2,3-Dichloro-5,8-dimethoxy-[1,4]naphthoquinone]	> 20 µM
CCN(CC)C1=C(Cl)C(=O)c2c(O)ccc(O)c2C1=O	> 20 µM
O=C1C(Cl)=C(N2CCOCC2)C(=O)c2c(O)ccc(O)c21	2.7 µM
